Laboratory results: US9327060B2 (CARDINAL HEALTH SWITZERLAND 515 GmbH, priority 2009, dated 2016)

Key:
[1] = porcine drug elution PK study of the dual drug eluting coating; assay type: in vivo; settings: after eight (8) days of implantation; stent of FIG. 11 (sirolimus and cilostazol in one EVA/BMA layer, 100 μg BMA overcoat)
Source text: Another critical parameter for the performance of the thrombus resistance of a device coated with cilostazol is the duration of the drug release from the coating. This is of particular significance in the two weeks after device implantation. In the porcine drug elution PK studies of the dual drug eluting coating, both cilostazol and sirolimus were slowly released from the coating, resulting in a sustained drug release profile. The purpose of the porcine PK study is to assess the local pharmacokinetics of a drug eluting stent at a given implantation time. Normally three stents are implanted in three different coronary arteries in a pig for a given time point and then retrieved for total drug recovery analysis. The stents are retrieved at predetermined time points; namely, 1, 3 and 8 days. The stents are extracted and the total amount of drug remaining on the stents is determined by analysis utilizing HPLC (high performance liquid chromatography) for total drug amount. The difference between the original amount of drug on the stent and the amount of drug retrieved at a given time represents the amount of drug released in that period. The continuous release of drug into surrounding arterial tissue is what prevents the neointimal growth and restenosis in the coronary artery. A normal plot represents the percentage of total drug released (%, y-axis) vs. time of implantation (day, x-axis). […]

[2] = Source text: Referring to FIG. 29, there is illustrated the cumulative in vivo drug release percentages from a reservoir eluting stent for each drug over a thirty day period. Curve 2902 represents the profile for cilostazol while curve 2904 represents the profile for sirolimus. FIG. 30 is a graphical representation of the amount of each drug, in micrograms, released in vivo. Curve 3002 represents the profile for cilostazol while curve 3004 represents the profile for sirolimus. The curves in the figures illustrate that both the drugs elute independently of each other with minimal or substantially no interaction. […] Since the amount of drug (by weight) is different for the drugs in their respective reservoirs, the total amount of drug released at thirty (30) days was higher for sirolimus as compared to cilostazol.
[3] = tested on: platelet deposition and thrombus formation on the stent surface; test: in vitro bovine blood loop model; settings: sirolimus/cilostazol combination coatings, FIG. 8
Source text: The anti-thrombotic efficacy of the above-described three configurations is illustrated in FIG. 8. FIG. 8 illustrates the anti-thrombotic properties of the sirolimus/cilostazol combination coatings described above in an in vitro bovine blood loop model. In the in vitro bovine blood loop model, fresh bovine blood is heparinized to adjust for […] (ACT) of about two hundred (200) seconds. The platelet content in the blood is labeled through the use of Indium 111. In the study, a stent is deployed in a silicone tube, which is part of a closed loop system for blood circulation. The heparinzed blood is circulated through the closed loop system by means of a circulating pump. Blood clots and thrombus builds up on a stent surface over time and reduces the flow rate of blood through the stented loop. The flow is stopped when the flow rate is reduced to fifty (50) percent of the starting value or at ninety (90) minutes if none of the tested stent reduces the flow by fifty (50) percent. The total radioactivity (In 111) on the stent surface is counted by a […] and normalized with the control unit, set as one hundred (100) percent in the chart. […]

[4] = in vitro release kinetics of sirolimus and cilostazol from coated stent; assay type: physicochemical; settings: stent of FIG. 11 (sirolimus and cilostazol in one EVA/BMA layer, 100 μg BMA overcoat); FIG. 10

Structure (SMILES)	drug remained in the drug coating [1]	cumulative in vivo elution [2]	thrombus formation [3]	in vitro release [4]
CO[C@H]1C[C@@H]2CC[C@@H](C)[C@@](O)(O2)C(=O)C(=O)N2CCCC[C@H]2C(=O)O[C@H]([C@H](C)C[C@@H]2CC[C@@H](O)[C@H](OC)C2)CC(=O)[C@H](C)/C=C(\C)[C@@H](O)[C@@H](OC)C(=O)[C@H](C)C[C@H](C)/C=C/C=C/C=C/1C [Rapamycin]	~80%	sixty (60) to seventy (70)		
O=C1CCc2cc(OCCCCc3nnnn3C3CCCCC3)ccc2N1 [cilostazol, 6[4-(1-cyclohexyl-1H-tetrazol-5-yl)-butoxy]-3,4-dihydro-2-(1H)-quinolinone]	~80%	sixty (60) to seventy (70)	significantly reduces thrombus formation	~35%
